This note sets out measurements from patent publication US20050063956A1, “Method and device for attracting insects” (Colorado State University Research Foundation, priority 1998, published 2005).

The subject of this test is western corn root worm larvae. The test is described as follows: Glass bead Y-tube choice test, corn volatiles versus CO2 (Example 19). The arrangement: species or system Diabrotica virgifera virgifera LeConte. Particulars: in vivo. The procedure:
Bioassay Procedure. All bioassays were choice tests conducted using a vertical glass “Y” tube apparatus filled with 3-mm glass beads (Bernklau and Bjostad 1998) (FIG. 62). Volatile compounds were prepared in 35-ml polyethylene syringes (cat no. 106-0490, Sherwood Medical, St. Louis, Mo.) and a syringe pump (Sage Model 355, Fisher Scientific, Pittsburgh, Pa.) was used to provide, slow (1 ml per min) consistent delivery of the compounds into each choice arm of the bioassay apparatus. Twenty newly-hatched larvae (less than 12-hours-old) were used for each bioassay. Non-diapausing larvae were used for all experiments unless otherwise indicated below. For each choice test a minimum of 10 replicates were conducted.
Corn Headspace Versus CO2. Using the glass bead bioassay (Bernklau and Bjostad 1998) the headspace over germinating corn seeds was tested in a choice test against a series of CO2 concentrations to determine if corn volatiles (including CO2) were more attractive to the larvae than CO2 alone. A 35-ml syringe was filled with the headspace over 3-day-old germinating corn seedlings by means of a 25-cm length of slender Teflon tubing inserted into a hole drilled into the cover of the tub containing the corn seedlings.
Three different concentrations of CO2 were tested on the control side of the choice test. In the 1 st test, we used ambient room air on the control side, which contains a lower concentration of CO2 than the corn headspace (approximately 1.0 mmol/mol). In the 2nd test, we used GC-MS-SIM to match the CO2 concentration in the syringe on the control side to be equal to that measured in the syringe containing corn headspace. In the 3rd test, the syringe on the control side of the choice test contained a CO2 concentration twice that measured in the corn headspace. To prepare each of these control concentrations, a 2nd 35-ml polyethylene syringe was partially filled (approximately 5 ml) from a tank containing pure (100%) CO2 using a glass syringe. Headspace from a plastic tub containing only moist germination paper was drawn into the syringe to fill it, mixing the air and CO2 thoroughly at the same time. The gas mixtures in the polyethylene syringes were allowed to equilibrate for 15 minutes, and GC-MS-SIM was used to verify the CO2 concentrations in both syringes prior to each bioassay.
Corn Headspace Versus CO2 with Diapausing Larvae. The larvae used in our studies were from a colony of nondiapausing western corn root worm that has been maintained in our laboratory since 1986. We wished to determine if diapausing western corn root worm larvae would respond differently to corn volatiles than the colony larvae. Using the same method described above, the headspace over germinating corn seeds was tested in a choice test against a series of CO2 concentrations with western corn root worm larvae from a diapausing strain.
Corn Headspace-Coated Glass Beads versus CO2. In the previous experiments, corn volatiles were introduced into the bottom of the Y-tube and carried through the glass beads by the airstream from the syringe pump. We also tested the possibility that some volatile compounds may have been removed from the airstream by coating out on the glass beads on the bottom of the Y-tube where they would not be available for the larvae to detect at the choice point near the middle of the Y-tube. […]

Turning to `O=C=O` [CO2, carbon dioxide], the “role in attraction of larvae to corn roots (conclusion)” value is reported as “the only attractive volatile compound that attracts western corn root worm larvae to corn roots”.
